Read-outs that look alike come from different tables or passages of the source.
Tests used:
[1] = tested on: Sigma receptors (non-selective); experiment: Sigma receptor functional assay (agonistic/antagonistic effect); type: biochemical
Text: SUPPLEMENTARY FIGURE LEGENDS
Supplementary Figure 1 – Related to Figure 1. […]
Values represent the mean
percentage of variation of the response to the reference Sigma-receptor ligand in the
in the absence of any other agents. […]

HepG2 cells = experiment: multi-parametric cytotoxicity assay (HCS); type: cell-based, human
Description: assessment/genetic-toxicology/regulatory-assays.html). Briefly, the numbers of revertant colonies for each of five histidine-requiring strains of Salmonella […]
different classes of genetically active compounds, were evaluated either in the presence or absence of metabolic activation by Aroclor 1254-induced rat liver post-mitochondrial S9 fraction (Supplementary Figure 2B). DTP3 was tested at the […]
expressed as the mean fold increase in colony number for each tester strain upon exposure to DTP3 or strain-specific control compounds (CTR) relative to exposure to vehicle control, either in the presence or absence of metabolic activation (Supplementary Figure 2C). The following significance thresholds were applied to each strain: ≥1.5 folds, strain TA102; ≥2-fold, strains TA98 and TA100; ≥3-fold, […]
(http://www.cyprotex.com/toxicology/multiparametric/cytotoxicity-screening-panel), using High Content Screening (HCS). […]
were treated with a specific dye or antibody, as required by the assay. Plates were then scanned using an ArrayScan VTI automated fluorescence cell imager (Thermo Scientific Cellomics) and analysed for the following measures of toxicity: nuclear size and nuclear morphology, cell membrane permeability, mitochondrial mass, mitochondrial membrane potential (DYm), and cytochrome c release (Figure 2). […]
each compound, cytotoxicity was scored by assessing the minimum effective concentration (MEC) inducing a significant effect relative to vehicle control. […]
and positive controls, respectively. Briefly, upon formation of a stable Gigaohm (GΩ) seal between patch electrodes and individual hERG-expressing HEK-293 cells, hERG-dependent outward tail currents were measured following depolarisation of the cell membrane to […] for 2 s (activation of channels) from a holding potential of - 80 mV, and following subsequent repolarisation to -40 mV, for 3 s. […]
. Electrophysiological measurements were recorded using PatchMaster software (Version v2x73_2). […] The amount of current block was calculated as the percentage of control current. […]

[2] = rat plasma
Description: Pooled plasma and faeces samples were prepared for metabolite profiling and
identification by sequential extraction with acetonitrile. Pooled urine samples were
centrifuged to remove particulate material. For each sample, metabolite profiles
were generated using radio-HPLC. On-line radio-detection was used for urine and
faeces, whereas off-line radio-detection was used for plasma, due to the low
radioactivity levels present in plasma samples. Selected samples were further
analysed by high resolution LC-MS(/MS) in order to characterise the most notable
Results were expressed as the mean of the indicated number of samples. The
statistical error was calculated as either standard deviation (SD) or standard error of
the mean (SEM), as indicated, according to the typology of the experiments.

CYP2C8 = CYP2C8 (Homo sapiens, UniProt P10632); conditions: read-out: CYP2C8 IC50
Chain of CYP2C8 (P10632 whole entry): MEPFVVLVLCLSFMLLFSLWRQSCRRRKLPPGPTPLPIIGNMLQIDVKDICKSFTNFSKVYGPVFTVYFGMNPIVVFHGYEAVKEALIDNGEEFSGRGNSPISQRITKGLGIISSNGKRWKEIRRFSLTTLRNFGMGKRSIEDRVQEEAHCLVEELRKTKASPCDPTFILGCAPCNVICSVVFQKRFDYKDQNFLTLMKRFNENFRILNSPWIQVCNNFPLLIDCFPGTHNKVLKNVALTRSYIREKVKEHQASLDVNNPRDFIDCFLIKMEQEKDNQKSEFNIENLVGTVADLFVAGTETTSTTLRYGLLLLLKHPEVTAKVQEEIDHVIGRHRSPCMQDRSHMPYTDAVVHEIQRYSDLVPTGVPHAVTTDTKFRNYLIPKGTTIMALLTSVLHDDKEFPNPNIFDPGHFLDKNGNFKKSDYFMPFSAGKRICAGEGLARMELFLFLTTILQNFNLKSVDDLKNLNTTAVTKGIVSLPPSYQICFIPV
Description: investigated in vitro, using time-dependent inhibition and catalytic induction assays
conducted at Cyprotex laboratories in accordance with in-house SOP

(+) SKF-10,047
Agonistic Effect, Response [1]: 48 % of ligand binding | Agonistic Effect, Response ([1]; [Drug] 1.0E-0.5 M): 17 % of ligand binding

CN(C)CCCN1c2ccccc2Sc2ccc(Cl)cc21 [Chlorpromazine, chlorpromazine]
MEC Cell membrane permeability (HepG2 cells): 1.12 µM | MEC Cytochrome C release (HepG2 cells; human, 72 h): 1.30 µM | MEC Mitochondrial membrane potential (HepG2 cells; human, 72 h): 4.70 µM

methoxy-DTP3 [P7 (methoxy DTP3)]
radio-labelled species in plasma profile ([2]; 10 m): 0.8 | radio-labelled species in plasma profile ([2]; 1 hr): 0.8

C[C@@H]1CN(CCCn2c3ccccc3c3ccccc32)C[C@H](C)N1 [Rimcazole, rimcazole]
Antagonistic Effect, Response ([1]; [Drug] 1.0E-0.5 M): -6 % of ligand binding | Antagonistic Effect, Response ([1]; [Drug] 1.0E-0.6 M): 84 % of ligand binding | Antagonistic Effect, Response ([1]; [Drug] 3.0E-0.6 M): 49 % of ligand binding

Cc1ccc(C)c(OCCCC(C)(C)C(=O)O[C@@H]2O[C@H](C(=O)O)[C@@H](O)[C@H](O)[C@H]2O)c1 [gemfibrozilglucuronide]
IC50 (CYP2C8; 0 min): 30.9 µM | IC50 (CYP2C8; 30 min, + NADPH): 5.84 µM | IC50 (CYP2C8; 30 min, - NADPH): 30.3 µM
